Drawing on PubChem BioAssay AID1745844 (Carcinogenic Potency Database (CPDB), 2022), this text covers TD50 and carcinogen call for five compounds.

The series concerns rodent lifetime carcinogenesis bioassay, tumor incidence TD50. Nature of the series: carcinogenic potency in animals, long-term in vivo studies, CPDB compilation (AID 1745844).

Calls of active or inactive are those of the source. The rule behind the calls is not given here.

Usually TD50 stands for the dose at which the toxic effect under study appears in half of the subjects. For the compound `CCCCN(CC)C(=O)SCCC`, the TD50 is 219 mg/kg/day (inactive) (mouse, strain B6AKF1, females, oral dosing, site: any site (literature study), lesion: several types, types named in the paper, dosed 76 weeks, study length 76 weeks); 113 mg/kg/day (inactive) (mouse, strain B6AKF1, females, oral dosing, site: lung, lesion: adenoma, dosed 76 weeks, study length 76 weeks); 251 mg/kg/day (inactive) (mouse, strain B6C3F1, females, oral dosing, site: any site (literature study), lesion: several types, types named in the paper, dosed 76 weeks, study length 76 weeks); 267 mg/kg/day (inactive) (mouse, strain B6C3F1, females, oral dosing, site: lung, lesion: adenoma, dosed 76 weeks, study length 76 weeks). The carcinogen call is “negative (inactive)” (mouse, strain B6AKF1, females, oral dosing, site: liver, lesion: hepatoma, dosed 76 weeks, study length 76 weeks); “negative (inactive)” (mouse, strain B6AKF1, males, oral dosing, site: any site (literature study), lesion: several types, types named in the paper, dosed 76 weeks, study length 76 weeks); “negative (inactive)” (mouse, strain B6AKF1, males, oral dosing, site: liver, lesion: hepatoma, dosed 76 weeks, study length 76 weeks); “negative (inactive)” (mouse, strain B6AKF1, males, oral dosing, site: lung, lesion: adenoma, dosed 76 weeks, study length 76 weeks); “negative (inactive)” (mouse, strain B6C3F1, females, oral dosing, site: liver, lesion: hepatoma, dosed 76 weeks, study length 76 weeks); “negative (inactive)” (mouse, strain B6C3F1, males, oral dosing, site: any site (literature study), lesion: several types, types named in the paper, dosed 76 weeks, study length 76 weeks). In addition, the carcinogen call was “negative (inactive)” (mouse, strain B6C3F1, males, oral dosing, site: liver, lesion: hepatoma, dosed 76 weeks, study length 76 weeks) and “negative (inactive)” (mouse, strain B6C3F1, males, oral dosing, site: lung, lesion: adenoma, dosed 76 weeks, study length 76 weeks).
As to `O=[N+]([O-])c1ccc(Nc2ccc(Nc3ccccc3)c(S(=O)(=O)O)c2)c([N+](=O)[O-])c1`, the TD50 (mouse, strain B6C3F1, females, by gavage, site: liver, lesion: hepatocellular adenoma + hepatocellular carcinoma + neoplastic nodule, dosed 103 weeks, study length 104 weeks) turned out to be 7550 mg/kg/day; the TD50 (mouse, strain B6C3F1, females, by gavage, site: lung, lesion: alveolar/bronchiolar adenoma + alveolar/bronchiolar carcinoma, dosed 103 weeks, study length 104 weeks) came to 11600 mg/kg/day; the TD50 (mouse, strain B6C3F1, females, by gavage, site: lung, lesion: alveolar/bronchiolar adenoma, dosed 103 weeks, study length 104 weeks) was 2590 mg/kg/day (inactive); the TD50 (mouse, strain B6C3F1, males, by gavage, site: any site (literature study), lesion: several types, types named in the paper, dosed 103 weeks, study length 104 weeks) amounted to 372 mg/kg/day; the TD50 (mouse, strain B6C3F1, males, by gavage, site: liver, lesion: hepatocellular carcinoma, dosed 103 weeks, study length 104 weeks) was 184 mg/kg/day (inactive); the TD50 (mouse, strain B6C3F1, males, by gavage, site: lung, lesion: alveolar/bronchiolar adenoma + alveolar/bronchiolar carcinoma, dosed 103 weeks, study length 104 weeks) turned out to be 5860 mg/kg/day. Besides, the TD50 (rat, strain Fischer 344, females, by gavage, site: any site (literature study), lesion: several types, types named in the paper, dosed 103 weeks, study length 104 weeks) was 361 mg/kg/day; the TD50 (rat, strain Fischer 344, females, by gavage, site: kidney, lesion: transitional-cell carcinoma, dosed 103 weeks, study length 104 weeks) is 1710 mg/kg/day; the TD50 (rat, strain Fischer 344, females, by gavage, site: liver, lesion: hepatocellular adenoma + hepatocellular carcinoma + neoplastic nodule, dosed 103 weeks, study length 104 weeks) is 5090 mg/kg/day; the TD50 (rat, strain Fischer 344, males, by gavage, site: any site (literature study), lesion: several types, types named in the paper, dosed 100 weeks, study length 104 weeks) is 270 mg/kg/day (inactive).
In the case of `CCN(N=O)C(N)=O`, the TD50 is, setting by setting: (rat, strain F344/DuCrj, females, in drinking water, site: all sites, lesion: mononuclear-cell leukemia, dosed 103 weeks, study length 111 weeks) 0.151 mg/kg/day; (rat, strain F344/DuCrj, females, in drinking water, site: any site (literature study), lesion: several types, types named in the paper, dosed 103 weeks, study length 111 weeks) 0.0687 mg/kg/day; (rat, strain F344/DuCrj, females, in drinking water, site: brain, lesion: several types, types named in the paper, dosed 103 weeks, study length 111 weeks) 0.904 mg/kg/day; (rat, strain F344/DuCrj, females, in drinking water, site: digestive tract, lesion: several types, types named in the paper, dosed 103 weeks, study length 111 weeks) 2.56 mg/kg/day; (rat, strain F344/DuCrj, females, in drinking water, site: duodenum, lesion: several types, types named in the paper, dosed 103 weeks, study length 111 weeks) 7.68 mg/kg/day; (rat, strain F344/DuCrj, females, in drinking water, site: mammary gland, lesion: adenocarcinoma, dosed 103 weeks, study length 111 weeks) 2.54 mg/kg/day. For the same compound, the TD50 is 8.7 mg/kg/day (rat, strain F344/DuCrj, females, in drinking water, site: thyroid follicle, lesion: papillary adenoma, dosed 103 weeks, study length 111 weeks); 2.56 mg/kg/day (rat, strain F344/DuCrj, females, in drinking water, site: uterus, endometrium, lesion: sarcoma, dosed 103 weeks, study length 111 weeks); 4.08 mg/kg/day (rat, strain F344/DuCrj, females, in drinking water, site: uterus, lesion: adenoma, dosed 103 weeks, study length 111 weeks); 0.883 mg/kg/day (rat, strain F344/DuCrj, females, in drinking water, site: uterus, lesion: endometrial stromal polyp, dosed 103 weeks, study length 111 weeks); 0.025 mg/kg/day (rat, strain F344/DuCrj, males, in drinking water, site: any site (literature study), lesion: several types, types named in the paper, dosed 99 weeks, study length 111 weeks); 0.997 mg/kg/day (rat, strain F344/DuCrj, males, in drinking water, site: brain, lesion: several types, types named in the paper, dosed 99 weeks, study length 111 weeks). Moreover, the TD50 (rat, strain F344/DuCrj, males, in drinking water, site: digestive tract, lesion: several types, types named in the paper, dosed 99 weeks, study length 111 weeks) is 1.15 mg/kg/day; the TD50 (rat, strain F344/DuCrj, males, in drinking water, site: duodenum, lesion: several types, types named in the paper, dosed 99 weeks, study length 111 weeks) is 31.2 mg/kg/day; the TD50 (rat, strain F344/DuCrj, males, in drinking water, site: liver, lesion: neoplastic nodule, dosed 99 weeks, study length 111 weeks) came out at 16.4 mg/kg/day; the TD50 (rat, strain F344/DuCrj, males, in drinking water, site: lung, lesion: adenocarcinoma, dosed 99 weeks, study length 111 weeks) is 2 mg/kg/day; the TD50 (rat, strain F344/DuCrj, males, in drinking water, site: lung, lesion: adenoma, dosed 99 weeks, study length 111 weeks) stood at 0.518 mg/kg/day; the TD50 (rat, strain F344/DuCrj, males, in drinking water, site: mammary gland, lesion: fibroma, dosed 99 weeks, study length 111 weeks) worked out at 0.889 mg/kg/day. Also, the TD50 (rat, strain F344/DuCrj, males, in drinking water, site: peripheral nervous system, lesion: several types, types named in the paper, dosed 99 weeks, study length 111 weeks) is 10.2 mg/kg/day; the TD50 (rat, strain F344/DuCrj, males, in drinking water, site: peritoneum, lesion: mesothelioma, dosed 99 weeks, study length 111 weeks) was 0.109 mg/kg/day; the TD50 (rat, strain F344/DuCrj, males, in drinking water, site: subcutaneous tissue, lesion: fibroma, dosed 99 weeks, study length 111 weeks) is 2.42 mg/kg/day; the TD50 (rat, strain F344/DuCrj, males, in drinking water, site: thyroid follicle, lesion: papillary adenocarcinoma, dosed 99 weeks, study length 111 weeks) is 8.53 mg/kg/day; the TD50 (rat, strain F344/DuCrj, males, in drinking water, site: thyroid follicle, lesion: papillary adenoma, dosed 99 weeks, study length 111 weeks) is 3.9 mg/kg/day.
Take `CCN=c1cc2oc3cc(NCC)c(C)cc3c(-c3ccccc3C(=O)OCC)c-2cc1C`: where the note is “mouse, strain B6C3F1, females, in feed, site: any site (literature study), lesion: several types, types named in the paper, dosed 103 weeks, study length 105 weeks”, the carcinogen call is “negative (inactive)”. Further, the TD50 is 1210 mg/kg/day (inactive) (mouse, strain B6C3F1, males, in feed, site: thyroid gland, lesion: follicular-cell adenoma + follicular-cell carcinoma, dosed 103 weeks, study length 105 weeks); 47.1 mg/kg/day (rat, strain Fischer 344, females, in feed, site: adrenal medulla, lesion: pheochromocytoma, malignant + pheochromocytoma, benign, dosed 103 weeks, study length 105 weeks); 553 mg/kg/day (rat, strain Fischer 344, males, in feed, site: liver, lesion: hepatocellular adenoma + hepatocellular carcinoma + neoplastic nodule, dosed 103 weeks, study length 105 weeks); 34.5 mg/kg/day (rat, strain Fischer 344, males, in feed, site: skin, lesion: keratoacanthoma, dosed 103 weeks, study length 105 weeks).
Turning to `COc1ccc(CCN2CCC(Nc3nc4ccccc4n3Cc3ccc(F)cc3)CC2)cc1`, the TD50 by setting is: (mouse, strain Swiss, females, in feed, site: any site (literature study), lesion: several types, types named in the paper, dosed 78 weeks, study length 78 weeks) 164 mg/kg/day (inactive); (mouse, strain Swiss, males, in feed, site: liver, lesion: hepatocellular adenoma, dosed 78 weeks, study length 78 weeks) 8770 mg/kg/day (inactive); (mouse, strain Swiss, males, in feed, site: liver, lesion: hepatocellular carcinoma, dosed 78 weeks, study length 78 weeks) 788 mg/kg/day (inactive); (rat, strain Charles River Crl:COBS(WI)BR, females, in feed, site: liver, lesion: neoplastic nodule, dosed 105 weeks, study length 105 weeks) 309 mg/kg/day (inactive); (rat, strain Charles River Crl:COBS(WI)BR, males, in feed, site: any site (literature study), lesion: several types, types named in the paper, dosed 105 weeks, study length 105 weeks) 32.5 mg/kg/day (inactive). Moreover, the carcinogen call by setting is: (mouse, strain Swiss, females, in feed, site: liver, lesion: hepatocellular adenoma, dosed 78 weeks, study length 78 weeks) “negative (inactive)”; (mouse, strain Swiss, females, in feed, site: lung, lesion: one or several types, types not named, dosed 78 weeks, study length 78 weeks) “negative (inactive)”; (mouse, strain Swiss, males, in feed, site: any site (literature study), lesion: several types, types named in the paper, dosed 78 weeks, study length 78 weeks) “negative (inactive)”; (mouse, strain Swiss, males, in feed, site: lung, lesion: one or several types, types not named, dosed 78 weeks, study length 78 weeks) “negative (inactive)”; (rat, strain Charles River Crl:COBS(WI)BR, females, in feed, site: any site (literature study), lesion: several types, types named in the paper, dosed 105 weeks, study length 105 weeks) “negative (inactive)”; (rat, strain Charles River Crl:COBS(WI)BR, males, in feed, site: liver, lesion: neoplastic nodule, dosed 105 weeks, study length 105 weeks) “negative (inactive)”.
